Laboratory results published in paper PMC6096703, “Pharmacokinetic drug interaction and safety after coadministration of clarithromycin, amoxicillin, and ilaprazole: a randomised, open-label, one-way crossover, two parallel sequences study” (European Journal of Clinical Pharmacology, 2018).
Values belong to the compound of their own block, whether it stands above or below them.

Key:
[1] = Pharmacokinetic assessment of plasma concentrations (LC-MS/MS, non-compartmental analysis) after mono/dual and triple therapy; conditions: for AUC(0-inf) / AUC(0-t) / Cmax / Vd/F / half-life / Tmax: male, human, plasma; for AUC(0-inf) / AUC(0-t) / Cmax / Vd/F / half-life: oral; for Tmax: po, median (min–max)
Protocol: (§1) This was a randomised, open-label, one-way crossover, two parallel sequences study. A total of 32 subjects were randomised and assigned to one of the two parts. Subjects assigned to part 1 received a single dose of ilaprazole (Noltec Tab., IL-YANG Pharmaceutical Co.) 10 mg in the first period. Then, after a washout period of 10 days, clarithromycin (Klaricid Film Coated Tab., Abbott Korea) 500 mg and amoxicillin (Amoxicillin Cap. 500 mg Chongkundang, Chong Kun Dang Pharmaceutical Co., Korea) 1000 mg were administered twice daily for 6 days in the second period. Ilaprazole 10 mg was coadministered with clarithromycin and amoxicillin on the day 5 of the second period.
(§2) Subjects assigned to part 2 received single doses of both clarithromycin 500 mg and amoxicillin 1000 mg in the first period; after a washout period of 10 days, ilaprazole 10 mg was administered twice daily for 6 days in the second period. Clarithromycin 500 mg and amoxicillin 1000 mg were coadministered with ilaprazole on the day 5 of the second period (Fig. 1).
(§3) Serial blood samples were collected in anti-coagulated EDTA-K2 tubes at 0 (pre-dose), 1, 2, 2.5, 3, 3.5, 4, 4.5, 5, 6, 8, 12, 24, and 48 h after dosing of ilaprazole in part 1. The PK sampling points in part 2 were 0 (pre-dose), 0.5, 0.75, 1, 1.5, 2, 2.5, 3, 4, 6, 8, 12, 24, and 48 h after dosing of clarithromycin and amoxicillin. Blood sampling points were determined considering the time to reach peak concentration (Tmax) and elimination half-life (t1/2) of ilaprazole, clarithromycin, and amoxicillin [9, 10, 20]. Plasma concentrations of ilaprazole, clarithromycin, and amoxicillin were analysed using liquid chromatography-tandem mass spectrometry (LC-MS/MS). Samples were centrifuged for 10 min under 4 °C at 2000×g and stored below − 70 °C until analysis.
(§4) For the analysis of ilaprazole, 100 μL of plasma was added to polypropylene tubes and mixed with 10 μL of the internal standard (omeprazole) solution and 1 mL of acetonitrile. The mixture was vortexed for 1 min and centrifuged for 5 min at 11,337×g. The supernatant (100 μL) was collected and reconstituted with 600 μL of mobile phase. The supernatant (2 μL) was then injected into an LC-MS/MS system. An LC system (Shiseido Nanospace SI-2, Shiseido, Tokyo, Japan) was used with a mobile phase (10 mM ammonium formate/acetonitrile = 50/50 [v/v]) at 40 °C. Chromatographic separation was performed at a flow rate of 0.25 mL/min. The transition of ilaprazole was detected at m/z 367.0 to 184.2 by using an MS/MS system (API4000®, AB SCIEX, Washington DC, USA) in the multiple reaction monitoring (MRM) mode with a positive electrospray ionisation (ESI) source. The calibration curve was linear over the range of 5–1000 ng/mL, and the correlation coefficient (r) was > 0.995.
(§5) For the analysis of clarithromycin, 100 μL of plasma was added to polypropylene tubes and mixed with 10 μL of the internal standard (clarithromycin-N-methyl-^13C, d3) solution and 500 μL of acetonitrile. The mixture was vortexed for 1 min and centrifuged for 5 min at 11,337×g. The supernatant (50 μL) was collected and reconstituted with 1000 μL of 50% acetonitrile. The supernatant (3 μL) was then injected into the LC-MS/MS system. The LC system was used with a mobile phase (10 mM ammonium formate/acetonitrile = 20/80 [v/v]) at 40 °C. Chromatographic separation was performed at a flow rate of 0.2 mL/min. The transition of clarithromycin was detected at m/z 748.4 to 590.4 using an MS/MS system (4000QTRAP, AB SCIEX, Washington DC, USA) in the MRM mode with a positive ESI source. The calibration curve was linear over the range of 10–7000 ng/mL, and the correlation coefficient (r) was > 0.995.
(§6) For the analysis of amoxicillin, 100 μL of plasma was added to polypropylene tubes and mixed with 10 μL of internal standard (amoxicillin-d4) solution and 500 μL of acetonitrile. The mixture was vortexed for 1 min and centrifuged for 5 min at 11,337×g.

[2] = in vivo
Protocol: as §1, §2, §3, §4, §5, §6

[3] = parameters: method as in PMID 16231964; conditions: cited from earlier work
[4] = clinical; conditions: male, human, in vivo, t1/2
Protocol: as §1, §2, §3, §4, §5, §6

[5] = Safety assessment: adverse events and adverse drug reactions; format: in vivo, healthy Korean male volunteers; conditions: Part I
Protocol: Safety and tolerability were evaluated throughout the study. The assessments included monitoring of all adverse events (AEs) based on physical examinations, vital signs, 12-lead ECG, routine haematology, serum chemistry, and urinalysis. The subjects were instructed to notify the study physicians or nurses of any AEs that occurred during the study. All AEs reported by subjects or detected in the assessments were recorded, and the investigators determined their relationship to the treatment. The severity of the AEs was evaluated based on the Common Terminology Criteria for Adverse Events (CTCAE, version 4.03).

[6] = dual therapy, period 1 of part 2, N = 15, arithmetic mean (SD)
[7] = AUCinf, dual therapy, period 1 of part 2, N = 15, arithmetic mean (SD)
[8] = AUCinf, geometric least square mean, dual therapy, period 1 of part 2, N = 15
[9] = AUCinf, geometric least square mean, triple therapy, period 2 of part 2, N = 15
[10] = AUCinf, triple therapy, period 2 of part 2, N = 15, arithmetic mean (SD)
[11] = AUClast, dual therapy, period 1 of part 2, N = 15, arithmetic mean (SD)
[12] = AUClast, geometric least square mean, dual therapy, period 1 of part 2, N = 15
[13] = AUClast, geometric least square mean, triple therapy, period 2 of part 2, N = 15
[14] = AUClast, triple therapy, period 2 of part 2, N = 15, arithmetic mean (SD)
[15] = geometric least square mean, dual therapy, period 1 of part 2, N = 15
[16] = geometric least square mean, triple therapy, period 2 of part 2, N = 15
[17] = triple therapy, period 2 of part 2, N = 15, arithmetic mean (SD)
[18] = clarithromycin 500 mg + amoxicillin 1000 mg oral single dose (dual therapy, period 1 of part 2), N = 15
[19] = clarithromycin 500 mg + amoxicillin 1000 mg oral with ilaprazole 10 mg (triple therapy, day 5 of period 2, part 2), N = 15
[20] = ilaprazole in triple therapy, period 2 of part 1, N = 13, arithmetic mean (SD)
[21] = 10 mg, ilaprazole monotherapy, period 1 of part 1, N = 13, arithmetic mean (SD)

CL/F [1, 6]: 36.6 (12.7) L/h
AUC(0-inf) [1, 7]: 15000 ng·h/mL
AUC(0-inf) [1, 8]: 14400 ng·h/mL
AUC(0-inf) [1, 9]: 15700 ng·h/mL
AUC(0-inf) [1, 10]: 16900 ng·h/mL
AUC(0-t) [1, 11]: 14600 ng·h/mL
AUC(0-t) [1, 12]: 14000 ng·h/mL
AUC(0-t) [1, 13]: 15300 ng·h/mL
AUC(0-t) [1, 14]: 16500 ng·h/mL
Cmax [1, 6]: 1870 ng/mL
Cmax [1, 15]: 1770 ng/mL
Cmax [1, 16]: 1590 ng/mL
Cmax [1, 17]: 1720 ng/mL
Vd/F [1, 6]: 247 L
Vd/F [1, 17]: 230 L
half-life ([1]; t1/2, dual therapy, period 1 of part 2, N = 15, arithmetic mean (SD)): 4.84 h
half-life ([1]; t1/2, triple therapy, period 2 of part 2, N = 15, arithmetic mean (SD)): 4.83 h
Tmax [1, 18]: 2 h
Tmax [1, 19]: 2.5 h
CL/F [1, 17]: 34.4 (15.1) L/h
Structure (SMILES): CC[C@H]1OC(=O)[C@H](C)[C@@H](O[C@H]2C[C@@](C)(OC)[C@@H](O)[C@H](C)O2)[C@H](C)[C@@H](O[C@@H]2O[C@H](C)C[C@H](N(C)C)[C@H]2O)[C@](C)(OC)C[C@@H](C)C(=O)[C@H](C)[C@@H](O)[C@]1(C)O [Clarithromycin, clarithromycin]

Plasma amoxicillin concentrations at 48 h after study drug administration [2]: not detected
AUCinf GMR (90% CI), triple therapy/dual therapy ([2]; male, human): 0.99 (0.83–1.17)
AUClast GMR (90% CI), triple therapy/dual therapy ([2]; male, human): 0.98 (0.83–1.16)
t1/2 ([2]; male, human): 1.96 (3.26) h
half-life [4]: 1.18 h
AUC(0-inf) [1, 7]: 28500 ng·h/mL
AUC(0-inf) [1, 8]: 27200 ng·h/mL
AUC(0-inf) [1, 9]: 26900 ng·h/mL
AUC(0-inf) [1, 10]: 27400 ng·h/mL
AUC(0-t) [1, 11]: 27900 ng·h/mL
AUC(0-t) [1, 12]: 26700 ng·h/mL
AUC(0-t) [1, 13]: 26200 ng·h/mL
AUC(0-t) [1, 14]: 26700 ng·h/mL
Cmax [1, 6]: 9370 ng/mL
Cmax [1, 15]: 9140 ng/mL
Cmax [1, 16]: 7910 ng/mL
Cmax [1, 17]: 8140 ng/mL
Vd/F [1, 6]: 64.7 L
Vd/F [1, 17]: 95.1 L
Tmax [1, 18]: 1.5 h
Tmax [1, 19]: 2 h
Structure (SMILES): CC1(C)S[C@@H]2[C@H](NC(=O)[C@H](N)c3ccc(O)cc3)C(=O)N2[C@H]1C(=O)O [Amoxicillin, amoxicillin]
bioavailability [3]: 89–98%

CL/F [1, 20]: 3.04 (1.11) L/h
CL/F ([1]; ilaprazole monotherapy, period 1 of part 1, N = 13, arithmetic mean (SD)): 3.28 (1.23) L/h
AUC(0-inf) ([1]; 10 mg, AUCinf, geometric least square mean, ilaprazole monotherapy, period 1 of part 1, N = 13): 3220 ng·h/mL
AUC(0-inf) ([1]; 10 mg, AUCinf, ilaprazole monotherapy, period 1 of part 1, N = 13, arithmetic mean (SD)): 3390 ng·h/mL
AUC(0-t) ([1]; 10 mg, AUClast, geometric least square mean, ilaprazole monotherapy, period 1 of part 1, N = 13): 3140 ng·h/mL
AUC(0-t) ([1]; 10 mg, AUClast, ilaprazole monotherapy, period 1 of part 1, N = 13, arithmetic mean (SD)): 3300 ng·h/mL
Cmax ([1]; 10 mg, geometric least square mean, ilaprazole monotherapy, period 1 of part 1, N = 13): 447 ng/mL
Cmax [1, 21]: 479 ng/mL
Vd/F [1, 21]: 19.5 L
AUC(0-inf) ([1]; 10 mg, mean AUCinf, ilaprazole monotherapy): 3390 ng·h/mL
AUC(0-t) ([1]; 10 mg, mean AUClast, ilaprazole monotherapy): 3300 ng·h/mL
half-life ([1]; 10 mg, t1/2, ilaprazole monotherapy, period 1 of part 1, N = 13, arithmetic mean (SD)): 4.16 h
AUC(0-inf) ([1]; AUCinf, geometric least square mean, ilaprazole in triple therapy, period 2 of part 1, N = 13): 3490 ng·h/mL
AUC(0-inf) ([1]; AUCinf, ilaprazole in triple therapy, period 2 of part 1, N = 13, arithmetic mean (SD)): 3680 ng·h/mL
AUC(0-t) ([1]; AUClast, geometric least square mean, ilaprazole in triple therapy, period 2 of part 1, N = 13): 3350 ng·h/mL
AUC(0-t) ([1]; AUClast, ilaprazole in triple therapy, period 2 of part 1, N = 13, arithmetic mean (SD)): 3540 ng·h/mL
Cmax ([1]; geometric least square mean, ilaprazole in triple therapy, period 2 of part 1, N = 13): 414 ng/mL
Cmax [1, 20]: 446 ng/mL
Vd/F [1, 20]: 20.4 L
AUC(0-inf) ([1]; mean AUCinf, ilaprazole in triple therapy): 3680 ng·h/mL
AUC(0-t) ([1]; mean AUClast, ilaprazole in triple therapy): 3540 ng·h/mL
half-life ([1]; t1/2, ilaprazole in triple therapy, period 2 of part 1, N = 13, arithmetic mean (SD)): 4.66 h
Tmax ([1]; 10 mg, ilaprazole 10 mg oral single dose alone (monotherapy, period 1 of part 1), N = 13): 3.5 h
Tmax ([1]; ilaprazole 10 mg oral with clarithromycin 500 mg and amoxicillin 1000 mg (triple therapy, day 5 of period 2, part 1), N = 13): 3 h
Structure (SMILES): COc1ccnc(C[S+]([O-])c2nc3cc(-n4cccc4)ccc3[nH]2)c1C (centres unmarked) [Ilaprazole, ilaprazole]
Subjects with adverse drug reactions [5]: no drug-related AE
Subjects with any adverse event [5]: 5 (31.3) number (%) of subjects
